Test results as given in patent US7897730B2, “TRAIL receptor-binding agents and uses of the same” (Beijing Cotimes Biotech Ltd., priority 2006, dated 2011).

What was measured:
[1] = system: human breast cancer cells (BT474); test: ATPLite cell viability, CTB003 with chemotherapeutic drug; format: cell-based; settings: combination with CTB003
Protocol: (§1) The cell lines selected for study included: human breast cancer cells (BT474), human colon cancer cells (SW620), human lung cancer cells (A437), human colon cancer cells (SW1116), and human pancreatic cancer cells (Panc 1). All cells were purchased from ATCC.
(§2) After culture at 37° C. overnight, cell viability was determined using the ATPLite kit according to the manufacturer's instructions (Packard Instruments, Meriden, Conn.): add 50 μl of cell lysis buffer and then 50 μl of substrate buffer. The reaction was counted in a luminescent reader. Cell viability was calculated as (cpm of treated cells/cmp of control cells)×100%.

[2] = system: MDA231 human breast cancer cell line; test: Xenograft model, tumor size; format: in vivo, Balb/c nude mice
Text: Human cancer cell lines that were used for generation of murine xenograft models of human cancer are: a) MDA231 human breast cancer cell line; b) 7402 human liver cancer cell line; c) Colo205 human colon cancer cell lines; and d) MIAcapa human pancreatic cancer cell line. All cells were purchased from ATCC, and cultured in DMEM supplemented with 10% FCS.
Six (6) to 8 week-old Balb/c nude mice were inoculated subcutaneously with 1×10^7 human cancer cells. At day 7-14 after tumor inoculation depending on inoculated tumor cell lines, over 90% mice developed viable tumor mass. The tumor-bearing mice were randomly divided into two groups: one was untreated control group, and another was CTB003 treated group. Human cancer tumor growth was evaluated by sizes of tumor. After inoculation, tumor sizes were measured weekly.
The treatment was repeated six times within three weeks.
(§3) Six (6) to 8 week-old Balb/c nude mice were inoculated subcutaneously with 1×10^7 human MDA231 breast cancer cells. […] Human breast cancer tumor growth was evaluated by measuring the size of tumor. After inoculation the tumor sizes were measured in mice weekly. […]
as §3

[3] = system: human colon cancer cells (SW1116); test: ATPLite cell viability, CTB003 with chemotherapeutic drug or mono-specific antibody; format: cell-based; settings: for effect on CTB003 killing: combination with CTB003
Protocol: as §1, §2
as §2, with “for 16 h,” for “overnight,”

[4] = system: human lung cancer cells (A437); test: ATPLite cell viability, CTB003 with chemotherapeutic drug; format: cell-based; settings: combination with CTB003
Protocol: as §1, §2

[5] = system: human pancreatic cancer cells (Panc-1); test: as above; format: cell-based; settings: combination with CTB003
Protocol: as §1, §2

[6] = system: human colon cancer cells (SW620); test: as above; format: cell-based; settings: combination with CTB003
Protocol: as §1, §2

[7] = system: Human T leukemia cells (Jurkat); test: Flow cytometry analysis of cell surface binding; settings: 10 μg/ml antibody; cells express TRAIL-R2 but not TRAIL-R1
Text: (§4) Tumor cells may express differential levels of cell surface of TRAIL-R1 and TRAIL-R2, therefore a monospecific antibody directed against either TRAIL-R1 or TRAIL-R2 may not able to bind to and induce apoptosis of all tumor cells when administered alone. […] Human T leukemia cells (Jurkat) only express TRAIL-R2 but not TRAIL-R1. Human B lymphoma cells (Ramos) express high levels of TRAIL-R1 but low levels of TRAIL-R2.
(§5) 1×10^6 single cells were collected from cell culture medium and washed twice with FACS buffer (PBS containing 5% FCS, 0.1% NaN3, pH7.4). […] After washing twice with 1 ml FACS buffer, cells were further incubated with PE-conjugated goat anti-mouse IgG1 antibody on ice for 30 minutes. After washing twice with 1 ml FACS buffer, cells were suspended in 0.5 ml FACS buffer and 10,000 viable cells were analyzed by FACScan flow cytometer.

[8] = system: Human B lymphoma cells (Ramos); test: Flow cytometry analysis of cell surface binding; settings: 10 μg/ml antibody; cells express high TRAIL-R1, low TRAIL-R2
Text: as §4, §5

[9] = system: Human B lymphoma cells (Ramos); test: ATPLite cell viability, apoptosis-inducing activity; format: cell-based; settings: 10-1000 ng/ml antibody, 16 h
Protocol: as §4
After culture at 37° C. for 16 h, the cell viability of each culture was determined using the ATPLite kit according to the manufacturer's instructions (Packard Instruments, Meriden, Conn.): add 50 μl of cell lysis buffer and then 50 μl of substrate buffer. The reaction was counted in a luminescent reader. Cell viability was calculated as (cpm of treated cells/cmp of control cells)×100%.

[10] = system: binding of CTB003 to TRAIL-R2; test: Competitive inhibition ELISA with polypeptides; design: species or system human; settings: 1 μg/ml CTB003, various concentrations of peptide
Sequence of binding of CTB003 to TRAIL-R2 (as listed by the source): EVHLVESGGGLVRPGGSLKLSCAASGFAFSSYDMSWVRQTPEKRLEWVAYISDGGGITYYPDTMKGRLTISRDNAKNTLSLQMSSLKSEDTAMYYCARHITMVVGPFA
Sequence of binding of CTB003 to TRAIL-R2 (as listed by the source): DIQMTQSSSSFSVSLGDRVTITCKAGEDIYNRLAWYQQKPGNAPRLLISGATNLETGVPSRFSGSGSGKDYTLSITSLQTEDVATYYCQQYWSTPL
Sequence of binding of CTB003 to TRAIL-R2 (O14763 56-210 partner limits assumed): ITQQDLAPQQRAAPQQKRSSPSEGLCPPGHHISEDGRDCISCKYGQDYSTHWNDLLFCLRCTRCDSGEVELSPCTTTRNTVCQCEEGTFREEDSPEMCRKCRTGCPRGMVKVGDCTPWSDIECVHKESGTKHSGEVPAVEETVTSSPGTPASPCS
Protocol: (§6) ELISA plate was coated with 1 μg/ml TRAIL-R2-Fc fusion protein in PBS at 4° C. overnight. After washing three times with PBS, the plate was blocked with 3% BSA PBS at room temperature for one hour. […] The unbound antibodies were removed by washing three time with PBS, and then HRP-conjugated goat anti-mouse IgG1 was added at 37° C. for 30 minutes. After washing three times with PBS, TMB substrate buffer was added for 10 minutes and then the reaction was stopped by adding 2N H2SO4. The values of optical density were recorded in a ELISA plate reader with a dual wavelength at 450 nm/650 nm.
as §6, with “μg/ml TRAIL-R1 or” for “μg/ml”

[11] = system: binding of humanized chimeric CTB003 to TRAIL-R1; test: Competitive inhibition ELISA with polypeptides; design: species or system human; settings: various concentrations of peptide
Sequence of binding of humanized chimeric CTB003 to TRAIL-R1 (as listed by the source, change not shown): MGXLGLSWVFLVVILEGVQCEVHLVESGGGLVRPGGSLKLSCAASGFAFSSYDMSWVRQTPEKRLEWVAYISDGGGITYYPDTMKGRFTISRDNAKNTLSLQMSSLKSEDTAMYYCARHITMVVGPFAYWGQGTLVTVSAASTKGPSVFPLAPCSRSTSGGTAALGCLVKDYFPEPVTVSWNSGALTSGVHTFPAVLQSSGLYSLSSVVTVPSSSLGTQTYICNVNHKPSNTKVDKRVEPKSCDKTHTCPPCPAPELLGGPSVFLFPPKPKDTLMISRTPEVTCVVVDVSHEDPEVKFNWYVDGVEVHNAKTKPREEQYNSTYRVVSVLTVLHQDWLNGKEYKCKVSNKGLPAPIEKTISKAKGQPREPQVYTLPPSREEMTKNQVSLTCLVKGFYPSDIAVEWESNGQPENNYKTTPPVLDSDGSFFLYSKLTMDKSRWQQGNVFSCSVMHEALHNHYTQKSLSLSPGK
Sequence of binding of humanized chimeric CTB003 to TRAIL-R1 (as listed by the source, change not shown): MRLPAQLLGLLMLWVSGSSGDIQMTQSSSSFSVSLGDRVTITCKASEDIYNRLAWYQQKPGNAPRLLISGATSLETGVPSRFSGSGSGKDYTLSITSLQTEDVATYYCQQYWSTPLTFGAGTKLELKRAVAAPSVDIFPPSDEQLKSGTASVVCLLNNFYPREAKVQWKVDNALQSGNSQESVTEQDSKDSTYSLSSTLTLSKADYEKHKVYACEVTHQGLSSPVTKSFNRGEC
Sequence of binding of humanized chimeric CTB003 to TRAIL-R1 (O00220 24-239 partner limits assumed): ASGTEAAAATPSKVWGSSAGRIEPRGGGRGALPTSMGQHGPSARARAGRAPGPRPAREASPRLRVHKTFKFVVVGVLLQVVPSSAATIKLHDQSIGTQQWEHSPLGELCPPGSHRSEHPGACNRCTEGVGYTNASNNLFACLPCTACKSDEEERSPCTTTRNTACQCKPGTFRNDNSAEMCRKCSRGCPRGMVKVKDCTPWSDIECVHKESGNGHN
Protocol: as §6, with “μg/ml TRAIL-R1 or” for “μg/ml”

[12] = system: binding of CTB003 to TRAIL-R1; test: Competitive inhibition ELISA with polypeptides; design: species or system human; settings: 1 μg/ml CTB003, various concentrations of peptide
Sequence of binding of CTB003 to TRAIL-R1 (O00220 24-239 partner limits assumed): as above
Protocol: as §6, with “μg/ml TRAIL-R1 or” for “μg/ml”

[13] = system: binding of humanized chimeric CTB003 to TRAIL-R2; test: Competitive inhibition ELISA with polypeptides; design: species or system human; settings: various concentrations of peptide
Sequence of binding of humanized chimeric CTB003 to TRAIL-R2 (O14763 56-210 partner limits assumed): as the sequence (O14763 56-210 partner limits assumed) above
Protocol: as §6, with “μg/ml TRAIL-R1 or” for “μg/ml”

COc1cccc2c1C(=O)c1c(O)c3c(c(O)c1C2=O)C[C@@](O)(C(=O)CO)C[C@@H]3O[C@H]1C[C@H](N)[C@H](O)[C@H](C)O1 [Adriamycin, reference compound]
effect on CTB003 killing [1]: synergistically enhanced CTB003 killing in a dose-dependent fashion
effect on tumor ([2]; Adriamycin alone, 100 μg per dose i.p. twice a week for three times): tumor inhibition was observed but tumor size reduction was not remarkable

CCc1c2c(nc3ccc(OC(=O)N4CCC(N5CCCCC5)CC4)cc13)-c1cc3c(c(=O)n1C2)COC(=O)[C@]3(O)CC [CTP-11, reference compound]
effect on CTB003 killing [3]: synergistically enhanced CTB003 killing in a dose-dependent fashion

N.N.[Cl][Pt][Cl] [Cisplatin, reference compound]
effect on CTB003 killing [4]: synergistically enhanced CTB003 killing in a dose-dependent fashion

Nc1ccn([C@@H]2O[C@H](CO)[C@@H](O)C2(F)F)c(=O)n1 [Gemcitabine, reference compound]
effect on CTB003 killing [5]: synergistically enhanced CTB003 killing in a dose-dependent fashion

CC(=O)O[C@H]1C(=O)[C@@]2(C)[C@H]([C@H](OC(=O)c3ccccc3)[C@]3(O)C[C@H](OC(=O)[C@H](O)[C@@H](NC(=O)c4ccccc4)c4ccccc4)C(C)=C1C3(C)C)[C@]1(OC(C)=O)CO[C@@H]1C[C@@H]2O [Taxol]
effect on CTB003 killing [6]: synergistically enhanced CTB003 killing in a dose-dependent fashion

CTB006: Murine monospecific antibody directed to TRAIL-R2 receptor; hybridoma CGMCC 1691
effect on tumor ([2]; CTB006 alone, 100 μg i.p. twice a week for three times): tumor inhibition was observed but tumor size reduction was not remarkable
cell surface staining [7]: positively stained
cell surface staining [8]: only weakly stained
susceptibility to antibody-induced apoptosis [9]: not susceptible
effect on CTB003 killing [3]: synergistically enhanced CTB003 killing in a dose-dependent fashion
cell killing by antibody alone ([3]; single antibody): did not induce cell killing

MVKVGDCTPWSDIECVHKESGTKHSGEAPA [peptide G, TRAIL-R2 (aa164-aa193), reference compound]
inhibition of antibody binding [10]: inhibited the binding of CTB003 to TRAIL-R2 in a dose-dependent manner

RKCRTGCPRGMVKVGDCTPWSDIECVHKES [peptide F, TRAIL-R2 (aa154-aa183), reference compound]
inhibition of antibody binding [10]: inhibited the binding of CTB003 to TRAIL-R2 in a dose-dependent manner

VGDCTPWSDIECVHKE [peptide H]
inhibition of antibody binding [11]: inhibited the binding of humanized chimeric CTB003 to TRAIL-R1 in a dose-dependent manner
inhibition of antibody binding [12]: inhibited the binding of CTB003 to TRAIL-R1 in a dose-dependent manner
inhibition of antibody binding [13]: inhibited the binding of humanized chimeric CTB003 to TRAIL-R2 in a dose-dependent manner
inhibition of antibody binding [10]: inhibited the binding of CTB003 to TRAIL-R2 in a dose-dependent manner

VKDCTPWSDIECVHKE [peptide I]
inhibition of antibody binding [11]: inhibited the binding of humanized chimeric CTB003 to TRAIL-R1 in a dose-dependent manner
inhibition of antibody binding [12]: inhibited the binding of CTB003 to TRAIL-R1 in a dose-dependent manner
inhibition of antibody binding [13]: inhibited the binding of humanized chimeric CTB003 to TRAIL-R2 in a dose-dependent manner
inhibition of antibody binding [10]: inhibited the binding of CTB003 to TRAIL-R2 in a dose-dependent manner
